From publication PMC7191645 (Molecular Metabolism, 2020) come the findings set out here.

Each structure is given as a SMILES string.

This assay concerns the target β3-adrenoceptor (β3-AR) (Mus musculus, UniProt P25962). Kind of assay: Epac1-camps FRET cAMP concentration-response in mature murine brown adipocytes. It counts as cell-based.

β3-adrenoceptor (β3-AR), sequence (P25962 whole entry): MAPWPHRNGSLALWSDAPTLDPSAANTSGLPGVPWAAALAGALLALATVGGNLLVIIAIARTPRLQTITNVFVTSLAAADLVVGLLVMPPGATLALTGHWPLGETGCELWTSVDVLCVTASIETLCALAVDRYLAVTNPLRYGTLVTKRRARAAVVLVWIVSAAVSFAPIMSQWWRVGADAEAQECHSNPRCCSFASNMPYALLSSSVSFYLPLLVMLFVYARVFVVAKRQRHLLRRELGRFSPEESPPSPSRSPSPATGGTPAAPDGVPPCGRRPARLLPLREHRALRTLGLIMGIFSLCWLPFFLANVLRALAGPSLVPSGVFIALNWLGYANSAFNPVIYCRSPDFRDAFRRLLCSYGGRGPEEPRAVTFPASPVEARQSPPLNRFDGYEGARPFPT

As for `C[C@H](Cc1ccc2c(c1)OC(C(=O)O)(C(=O)O)O2)NC[C@H](O)c1cccc(Cl)c1` [CL, CL 316,243], it took 7.8 µM to reach a half-maximal effect (EC50).
